Biological target: mitochondrial NAD+-dependent malic enzyme (ME)
Test: NADH formation at […] nm, mitochondrial lysate, Ki from reciprocal plots
Assay type: biochemical, Anopheles stephensi

Row | Compound | Ki [nM]
1 | O=C(O)C(=O)O [Oxalate] | 150
2 | O=C(O)CC(=O)C(=O)O [Oxaloacetate] | 120
3 | O=C(O)C(O)C(=O)O [Tartronate] | 610

Source: PMC3228860, “Mitochondrial NAD^+-dependent malic enzyme from Anopheles stephensi: a possible novel target for malaria mosquito control” (2011)
